# How the values were obtained:
# HepG2 = experiment: Intracellular lipid droplets (AdipoRed) in fat-loaded HepG2; format: cell-based, human; conditions: elafibranor 10 μM alone; FFA-treated
# Method: The human hepatocyte carcinoma were cultured in DMEM 4.5 g/L glucose (Gibco cat #31053 that was supplemented with 10% fetal bovine serum (FBS, Gibco cat #10270), 1% penicillin/streptomycin (Gibco cat #15140), 1% MEM NEAA (Gibco cat #11140), 1% L-Glutamine (Gibco cat #25030), and 1% Sodium Pyruvate (Gibco cat #11360).
# For these experiments, a checkerboard matrix was generated. ELA and component stocks were serially diluted in DMSO in 5-points series in a row (ELA) and a 11-points series in a column (component) of a 384-well plate. Subsequently, the 5×11 combination matrix was generated by 1:1 mixing of all single agent concentrations.
# Oleic (#O1383) and palmitic (P0500) acids were purchased at Sigma. FFA stock solutions (100 mM) were prepared in 0.1M NaOH at 80° C. Working solutions of 4.5 mM palmitate/10% bovine serum albumin (BSA) and 9 mM oleate/10% BSA were prepared by complexing an appropriate volume of stock solution to 10% BSA (FFA-free low endotoxin; Sigma-Aldrich, Bornem, Belgium) in a 55° C. water bath (15 min). […]
# To measure intracellular lipid droplets content, the cells were brought to room temperature and washed with 40 μL PBS. […] The relative fluorescence was measured (k excitation at 485 nm, k emission at 580 nm) using a fluorescence spectrometer (Spark Tecan cat #30086376 SN #1801002745). […]
# [1] = tested on: mice with NASH (CDFF-fed mice); experiment: Mouse fibrosing-NASH model (CDFF diet, 8 weeks); format: in vivo, C57Bl/6J mice; conditions: elafibranor 3 mg/kg/day
# Method: The preventive effects of the combinations of elafibranor with selonsertib, GKT-831 or GS-0976 were assessed in mice fed a choline-deficient, […] diet (CDAA) supplemented with 2% cholesterol, 30% milk fat diet and high fructose corn syrup 55 (55% fructose/45% glucose for a final concentration of 42 g/L) in drinking water (Mells et al J Nutr Biochem 2015) (CDFF diet). 5-6 weeks old male C57Bl/6J mice were fed a control (CSAA) diet (n=4), CDFF (n=12), or CDFF supplemented with elafibranor (1 or 3 mg/kg/day), selonsertib (30 mg/kg/day), GKT-831 ([…]) alone or in combination (n=8 per group) for 8 weeks.
# The body weight, the food and water intake were monitored twice per week. On the last day of treatment, plasma samples were obtained from retro-orbital blood sampling and mice were sacrificed after a 6 h-fasting period. The liver was rapidly excised for biochemical and histological analyses. All animal procedures were performed according to standard protocols and in accordance with the standard recommendations for the proper care and use of laboratory animals.
# The liver slices were fixed in a formalin 4% solution. Then, the liver pieces were washed 30 minutes in PBS, and dehydrated in ethanol solutions (successive baths at 70, 80, 95 and 100% ethanol). The liver pieces were incubated in three different baths of Xylene (Honeywell cat #534056), followed by two baths in liquid paraffin (59° C.). Liver pieces were then put into racks that were gently filled with HISTOWAX to completely cover the tissue.
# Liver sections were deparaffinized, rehydrated and incubated for 3 minutes in Mayer's Hematoxylin (Microm, cat #F/C0303). Then, the liver sections were rinsed in water and incubated 1 minute in a Eosin Y 0.5% alcoholic (VWR, cat #1.02439.0500) and Erythrosin 0.5% solution (VWR, cat #1.15936.0010), and rinsed in with ethanol. Sections were then incubated for 2 minutes in Safranin, and were eventually dehydrated and mounted using the CV Mount medium (Leica, cat #046430011).
# Liver sections were deparaffinized, rehydrated and incubated for 15 minutes in a solution of Fast Green FCF 0.1% (Sigma-Aldrich, cat #F7258) before rinsing in a bath of 0.5% acetic acid (Panreac, cat #131008.1611). Then, the liver sections were rinsed in water and incubated 30 minutes in a solution of 0.1% sirius red (Direct Red 80, Fluka cat #43665) in saturated aqueous picric acid (Sigma-Aldrich cat #P6744). Sections were then dehydrated, and mounted using the CV Mount medium (Leica, cat #14046430011).
# A technician blinded to the source of each liver specimen performed histological examinations. Virtual slides were generated using the Pannoramic 250 scanner from 3D Histech. For each animal, a score summarizing the main histological lesions of NASH was attributed according to the NASH Clinical Research Network (Kleiner 2005, Brunt 1999). Briefly, steatosis, lobular inflammation and hepatocyte ballooning were scored. The NAFLD Activity Score (NAS) was established for each individual as the unweighted sum of the steatosis (0-3), lobular inflammation (0-3) and the ballooning (0-2) injury grading.
# Using Quant Center software (3D Histech, including Pattern Quant and Histo Quant modules), collagen-stained areas were quantified. Briefly, Pattern Quant was used to detect the tissue and measure its surface. Then, Histo Quant was used to detect the stained collagen content and measure its surface, based on a color threshold method. The fibrosis area was then expressed as the percentage of the collagen surface to the whole tissue per animal.
# The hepatic collagen content was determined using the appropriate QuickZyme kit (Total collagen assay, cat #QZB-totcol2). The assay is based on the detection of hydroxyproline, which is a non-proteinogenic amino acid mainly found in the triple helix of collagen. […]
substance,measurement,setting,value
"1-[4-methylthiophenyl]-3-[3,5-dimethyl-4-carboxydimethylmethyloxyphenyl]prop-2-en-1-one [Elafibranor]",reduction of fat accumulation,HepG2,20%
same,"NASH histology (steatosis, hepatic lobular inflammation, NAFLD activity score)",[1],improves NASH histology
same,"hepatic expression of genes related to inflammation, tissue remodeling and fibrogenesis",[1]; alone or with selonsertib 30 mg/kg/day,decreases
same,"hepatic fibrosis (histology, hepatic collagen content, PIIINP and TIMP-1)","[1]; selonsertib 30 mg/kg/day, alone or combined",marked reduction of hepatic fibrosis

# From US11478440B2, “Combination of Elafibranor or derivatives thereof with an anti-NASH, anti-fibrotic or anti-cholestatic agent” (GENFIT, priority 2017, dated 2022)
